In the supplement of paper PMC11061612:

How the values were obtained:
[1] = tested on: NCI-H1793 (Lung Adenocarcinoma); experiment: Bliss excess, mean over the matrix (fraction); higher = more synergy
Summary of the method: (§1)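 Cell lines grown in DMEM/F12 or RPMI with 10% FBS were plated in 1536-well plates and held 24 hours at 37°C, 5% CO2 before 72 hours of exposure to two-drug dose matrices, with DMSO typically at 0.2%. CellTiter-Glo 2.0 luminescence gave viability, which was converted to inhibition. Vehicle wells were set to 0 and blank wells to 1. Combination Emax is the second-highest inhibition in the matrix, and Bliss excess is the observed combination effect minus the expected EA + EB − EA·EB, where EA and EB are the single-agent effects.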

SN12C (Kidney Carcinoma) = experiment: as above
Summary of the method: as §1

[2] = tested on: DMS-273 (Small Cell Lung Carcinoma); experiment: as above
Summary of the method: as §1

[3] = tested on: NCI-H1781 (Lung Adenocarcinoma); experiment: as above
Summary of the method: as §1

[4] = tested on: OCI-AML2 (Acute Myeloid Leukemia); experiment: as above
Summary of the method: as §1

[5] = tested on: COR-L95 (Small Cell Lung Carcinoma); experiment: as above
Summary of the method: as §1

NCI-H2369 (Mesothelioma) = experiment: as above
Summary of the method: as §1

[6] = tested on: CTV-1 (T-Lymphoblastic Leukemia); experiment: as above
Summary of the method: as §1

[7] = tested on: NCI-H1299 (Non-Small Cell Lung Carcinoma); experiment: as above
Summary of the method: as §1

IGR-1 (Melanoma) = experiment: combination Emax (second highest fraction inhibited in the dose matrix, 72 h); higher = more inhibition; extreme values may be limits of the assay
Summary of the method: as §1

[8] = tested on: HPAC (Pancreatic Carcinoma); experiment: as above
Summary of the method: as §1

[9] = tested on: DMS-273 (Small Cell Lung Carcinoma); experiment: as above
Summary of the method: as §1

[10] = tested on: NCI-H1781 (Lung Adenocarcinoma); experiment: as above
Summary of the method: as §1

[11] = tested on: TGBC24TKB (Biliary Tract Carcinoma); experiment: as above
Summary of the method: as §1

[12] = tested on: IHH-4 (Thyroid Gland Carcinoma); experiment: as above
Summary of the method: as §1

[13] = tested on: OCI-AML2 (Acute Myeloid Leukemia); experiment: as above
Summary of the method: as §1

[14] = tested on: COR-L95 (Small Cell Lung Carcinoma); experiment: as above
Summary of the method: as §1

[15] = tested on: G-292-Clone-A141B1 (Osteosarcoma); experiment: as above
Summary of the method: as §1

NCI-H2595 (Mesothelioma) = experiment: as above
Summary of the method: as §1

[16] = tested on: NALM-6 (B-Lymphoblastic Leukemia); experiment: as above
Summary of the method: as §1
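Wherever Bliss excess, mean over the matrix is given: after 72 h of two-drug dosing.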

| SMILES | Bliss excess [1] | Bliss excess (SN12C (Kidney Carcinoma)) | Bliss excess [2] | Bliss excess [3] | Bliss excess [4] | Bliss excess [5] | Bliss excess (NCI-H2369 (Mesothelioma)) | Bliss excess [6] | Bliss excess [7] | combination Emax (IGR-1 (Melanoma)) | combination Emax [8] | combination Emax [9] | combination Emax [10] | combination Emax [11] | combination Emax [12] | combination Emax [13] | combination Emax [14] | combination Emax [15] | combination Emax (NCI-H2595 (Mesothelioma)) | combination Emax [16] |
| --- | --- | --- | --- | --- | --- | --- | --- | --- | --- | --- | --- | --- | --- | --- | --- | --- | --- | --- | --- | --- |
| Cn1cnc2c(F)c(Nc3ccc(Br)cc3Cl)c(C(=O)NOCCO)cc21 [Selumetinib] + C=CCn1c(=O)c2cnc(Nc3ccc(N4CCN(C)CC4)cc3)nc2n1-c1cccc(C(C)(C)O)n1 [AZD1775] (first compound max 10 µM, partner max 1 µM) | -0.0764 | -0.0228 | 0.0035 | -0.063 | 0.0274 | -0.0464 | -0.0624 | 0.0039 | -0.02 | 0.578 | 0.877 | 0.739 | 0.485 | 0.637 | 0.742 | 1 | 0.32 | 0.102 | 0.18 | 0.98 |
| Cn1cnc2c(F)c(Nc3ccc(Br)cc3Cl)c(C(=O)NOCCO)cc21 [Selumetinib] + CC(C)n1c(=O)n(C)c2cnc3cc(F)c(-c4ccc(OCCCN5CCCCC5)nc4)cc3c21 [AZD1390] (first compound max 10 µM, 7x7, partner max 0.3 µM) | -0.0503 | -0.0313 | -0.0103 | -0.0223 | -0.0079 | -0.016 | -0.0442 | 0.0032 | -0.012 | 0.296 | 0.678 | 0.232 | 0.218 | 0.828 | 0.436 | 0.993 | 0.18 | 0.0339 | 0.191 | 0.205 |
| Cn1cnc2c(F)c(Nc3ccc(Br)cc3Cl)c(C(=O)NOCCO)cc21 [Selumetinib] + CCN(CCO)CCCOc1ccc2c(Nc3cc(CC(=O)Nc4cccc(F)c4)[nH]n3)ncnc2c1 [AZD2811] (first compound max 10 µM, 7x7, partner max 1 µM) | -0.0302 | -0.0444 | -0.0144 | 0.0045 | 0.0545 | -0.0075 | -0.0517 | 0.0436 | -0.0205 | 0.393 | 0.906 | 0.804 | 0.623 | 0.551 | 0.586 | 1 | 0.21 | 0.102 | 0.169 | 0.836 |
| Cn1cnc2c(F)c(Nc3ccc(Br)cc3Cl)c(C(=O)NOCCO)cc21 [Selumetinib] + C[C@@H]1COCCN1C2=NC(=NC(=C2)C3(CC3)[S@](=N)(=O)C)C4=C5C=CNC5=NC=C4 [AZD6738] (first compound max 10 µM, 7x7, partner max 10 µM) | -0.0402 | -0.0169 | -0.0676 | -0.0397 | 0.0141 | -0.0778 | -0.0338 | -0.001 | 0.0454 | 0.707 | 0.735 | 0.811 | 0.396 | 0.703 | 0.646 | 1 | 0.535 | 0.141 | 0.165 | 0.972 |
| CC(=O)Nc1cccc(-n2c(=O)n(C3CC3)c(=O)c3c(Nc4ccc(I)cc4F)n(C)c(=O)c(C)c32)c1 [Trametinib] + Cc1nc(-c2cn3c(n2)-c2ccc(-c4cnn(C(C)(C)C(N)=O)c4)cc2OCC3)n(C(C)C)n1 [Taselisib] (first compound max 1 µM, 7x7, partner max 10 µM) | 0.0519 | 0.0395 | 0.0427 | -0.053 | 0.0227 | 0.0096 | 0.046 | 0.328 | 0.121 | 0.759 | 1 | 0.591 | 0.88 | 0.969 | 0.78 | 1 | 0.439 | 0.921 | 0.404 | 0.689 |
| CC1(C)CCC(CN2CCN(c3ccc(C(=O)NS(=O)(=O)c4ccc(NCC5CCOCC5)c([N+](=O)[O-])c4)c(Oc4cnc5[nH]ccc5c4)c3)CC2)=C(c2ccc(Cl)cc2)C1 [Venetoclax] + C1CN(CCC1(C(=O)N[C@@H](CCO)C2=CC=C(C=C2)Cl)N)C3=NC=NC4=C3C=CN4 [Capivasertib] (first compound max 1 µM, 7x7, partner max 3 µM) | -0.041 | -0.0557 | 0.0443 | -0.0811 | 0.0444 | 0.0145 | -0.0422 | -0.0319 | -0.0036 | 0.193 | 0.148 | 0.743 | 0.5 | 0.253 | 0.248 | 1 | 0.719 | 0.273 | 0.235 | 0.848 |
